In patent US8598216B1 (Abbvie Inc., priority 2010, dated 2013):

Key:
[1] = Intrinsic dissolution rate (IDR), compressed disc, USP II; type: physicochemical; conditions: 200 mL pH 6.8 phosphate buffer, paddle 100 rpm; FIG. 10
Protocol: Drug dissolution was measured using in USP II (Dissolution medium: 200 mL pH 6.8 phosphate buffer; Paddle speed: 100 rpm).

in vivo = conditions: dog
Protocol: A series of studies evaluated the effect of the bis-hydrochloride and bis-tosylate form on the ritonavir plasma concentrations following single 100 mg base doses in dogs. Each of the salts was evaluated in a single group of six dogs. The free base and the two salts were weighed into gelatin capsules at a dose of 100 mg base for dosing in the dogs. The dogs were fasted overnight prior to dosing, but were permitted free access to water. Approximately 30 minutes prior to dosing, the dogs received a 100 ug/kg subcutaneous dose of histamine. Plasma concentrations of parent drug were determined by HPLC-MS/MS. The following formulations/salts were evaluated: amorphous ritonavir bis-hydrochloride, amorphous ritonavir free base, and ritonavir bis-tosylate.

[2] = Dynamic moisture sorption (hygroscopicity); type: physicochemical; conditions: 90% RH, 25° C.; FIG. 7
Protocol: Hygroscopicity was evaluated on a dynamic moisture sorption balance (IGAsorp, Hiden Isochema, Warrington, UK) equipped with a data analyzer (IGAsorp, version 6.0.0.23, Hiden Isochema, Warrington UK). The balance was calibrated using standardized weights of 20, 50, and 100 mg. The RH probe was calibrated using standardized salt solutions of Lithium Chloride, Potassium Carbonate, and Sodium Chloride. During the experiment, the flow rate of nitrogen gas at different relative humidity was 250 mL/min. For anhydrous materials, the sample was first dried with dry nitrogen at 50° C. for two hours. The temperature was then set to 25° C. and the relative humidity was changed from 0% to 90% and back to 0% at 10% interval. For hydrated samples, the temperature was set to 25° C. and the relative humidity was changed at 10% interval from 30% to 90%, back to 10%, and then to 90%.

## CC(C)c1nc(CN(C)C(=O)N[C@H](C(=O)N[C@@H](Cc2ccccc2)C[C@H](O)[C@H](Cc2ccccc2)NC(=O)OCc2cncs2)C(C)C)cs1.Cl.Cl [ritonavir bis-hydrochloride]
[1]
  intrinsic dissolution rate compared with ritonavir free base: significantly faster dissolution rate than the ritonavir free base
In vivo
  bioavailability compared with free base: greater bioavailability than the free base of ritonavir
In vivo; po, 100 mg, range
  AUC: 3160 to 20200 ng·h/mL
In vivo; po, 100 mg, peak concentration (Cmax), range
  Cmax: 1160 to 8390 ng/mL
[2]
  moisture picked up: about 20 % (w/w)

## CC(C)c1nc(CN(C)C(=O)N[C@H](C(=O)N[C@@H](Cc2ccccc2)C[C@H](O)[C@H](Cc2ccccc2)NC(=O)OCc2cncs2)C(C)C)cs1 [ritonavir free base, (2S,3S,5S)-5-(N-(N-((N-methyl-N-((2-isopropyl-4-thiazolyl)-methyl)amino)carbonyl)-L-valinyl)amino)-2-(N-((5-thiazolyl)-methoxy-carbonyl)-amino)-1,6-diphenyl-3-hydroxyhexane, reference compound]
In vivo; po, 100 mg, range
  AUC: < 22 ng·h/mL

## ritonavir bis-tosylate [reference compound]
In vivo; po, 100 mg
  AUC, range: 70 to 6420 ng·h/mL
  peak concentration (Cmax), range: 10 to 1620 ng/mL
